# System: not listed separately
# Experiment: Protein binding in rat plasma
# Format: ADME, cell-free
# Conditions: read-out: PPB (converted)
row,SMILES,fraction unbound
1,Cc1noc2c1-c1ccc(-c3cnn(C)c3)cc1N(c1ccc(C#N)cc1)CC2CC(N)=O (stereo not given),0.06
2,CCNC(=O)CC1CN(c2ccc(Cl)cc2)c2ccccc2-n2c(C)nnc21 (stereo not given),0.13

# System: not listed separately
# Experiment: Protein binding in mouse plasma
# Conditions: not given
row,SMILES,fraction unbound
1,Cc1noc2c1-c1ccc(-c3cnn(C)c3)cc1N(c1ccc(C#N)cc1)CC2CC(N)=O (stereo not given),0.04
2,CCNC(=O)CC1CN(c2ccc(Cl)cc2)c2ccccc2-n2c(C)nnc21 (stereo not given),0.08

# System: not listed separately
# Experiment: Intrinsic clearance in human liver microsomes
# Conditions: not given
row,SMILES,microsomal CLint [µL/min/mg]
1,Cc1noc2c1-c1ccc(-c3cnn(C)c3)cc1N(c1ccc(C#N)cc1)CC2CC(N)=O (stereo not given),27
2,CCNC(=O)CC1CN(c2ccc(Cl)cc2)c2ccccc2-n2c(C)nnc21 (stereo not given),44

# System: not listed separately
# Experiment: Protein binding in human plasma
# Format: ADME, cell-free
# Conditions: read-out: PPB (converted)
row,SMILES,fraction unbound
1,Cc1noc2c1-c1ccc(-c3cnn(C)c3)cc1N(c1ccc(C#N)cc1)CC2CC(N)=O (stereo not given),0.01
2,CCNC(=O)CC1CN(c2ccc(Cl)cc2)c2ccccc2-n2c(C)nnc21 (stereo not given),0.09

# System: not listed separately
# Experiment: Intrinsic clearance in dog liver microsomes
# Conditions: not given
row,SMILES,microsomal CLint [µL/min/mg]
1,Cc1noc2c1-c1ccc(-c3cnn(C)c3)cc1N(c1ccc(C#N)cc1)CC2CC(N)=O (stereo not given),69
2,CCNC(=O)CC1CN(c2ccc(Cl)cc2)c2ccccc2-n2c(C)nnc21 (stereo not given),33

# System: not listed separately
# Experiment: Protein binding in dog plasma
# Conditions: not given
row,SMILES,fraction unbound
1,Cc1noc2c1-c1ccc(-c3cnn(C)c3)cc1N(c1ccc(C#N)cc1)CC2CC(N)=O (stereo not given),0.02
2,CCNC(=O)CC1CN(c2ccc(Cl)cc2)c2ccccc2-n2c(C)nnc21 (stereo not given),0.09

# System: not listed separately
# Experiment: Inhibition of BET in human THP-1 cells assessed as suppression of LPS-induced IL-6 release measured after 16 hrs by chemiluminescence ELISA
# Format: cell-based
# Conditions: THP-1, 16 h
row,SMILES,EC50 [nM]
1,Cc1nnc2n1-c1ccc(-c3ccc(=O)n(C)c3)cc1N(c1ccc(Cl)cc1)C[C@H]2C,36
2,Cc1nnc2n1-c1ccc(-c3ccc(N)nc3)cc1N(c1ccc(Cl)cc1)C[C@@H]2C,790
3,Cc1nnc2n1-c1ccc(S(C)(=O)=O)cc1N(c1ccc(Cl)cc1)C[C@H]2C,670
4,Cc1nnc2n1-c1ccc(-n3cncn3)cc1N(c1ccc(Cl)cc1)C[C@H]2C,41
5,Cc1ncnn1-c1ccc2c(c1)N(c1ccc(Cl)cc1)C[C@@H](C)c1nnc(C)n1-2,450
6,Cc1noc2c1-c1ccc(-c3cnn(C)c3)cc1N(c1ccc(C#N)cc1)CC2CC(N)=O (stereo not given),810
7,Cc1nnc2n1-c1ccc(C(N)=O)cc1N(c1ccc(Cl)cc1)C[C@H]2C,96
8,CCNC(=O)CC1CN(c2ccc(Cl)cc2)c2ccccc2-n2c(C)nnc21 (stereo not given),1800
9,Cc1ccc(-c2ccc3c(c2)N(c2ccc(Cl)cc2)C[C@@H](C)c2nnc(C)n2-3)cn1,100

# System: not listed separately
# Experiment: Intrinsic clearance in rat liver microsomes
# Conditions: not given
row,SMILES,microsomal CLint [µL/min/mg]
1,Cc1noc2c1-c1ccc(-c3cnn(C)c3)cc1N(c1ccc(C#N)cc1)CC2CC(N)=O (stereo not given),22
2,CCNC(=O)CC1CN(c2ccc(Cl)cc2)c2ccccc2-n2c(C)nnc21 (stereo not given),74

# Molecular target: Bromodomain-containing protein 4 (Homo sapiens, UniProt O60885)
# Conditions: not given
row,SMILES,IC50 [nM]
1,Cc1nnc2n1-c1ccc(-c3ccc(=O)n(C)c3)cc1N(c1ccc(Cl)cc1)C[C@H]2C,25
2,Cc1nnc2n1-c1ccccc1NCC2,62000
3,Cc1nnc2n1-c1ccc(-c3ccc(N)nc3)cc1N(c1ccc(Cl)cc1)C[C@@H]2C,790
4,Cc1nnc2n1-c1ccc(S(C)(=O)=O)cc1N(c1ccc(Cl)cc1)C[C@H]2C,1200
5,Cc1nnc2n1-c1ccc(-n3cncn3)cc1N(c1ccc(Cl)cc1)C[C@H]2C,74
6,Cc1ncnn1-c1ccc2c(c1)N(c1ccc(Cl)cc1)C[C@@H](C)c1nnc(C)n1-2,280
7,Cc1noc2c1-c1ccc(-c3cnn(C)c3)cc1N(c1ccc(C#N)cc1)CC2CC(N)=O (stereo not given),310
8,Cc1nnc2n1-c1ccc(C(N)=O)cc1N(c1ccc(Cl)cc1)C[C@H]2C,65
9,CCNC(=O)CC1CN(c2ccc(Cl)cc2)c2ccccc2-n2c(C)nnc21 (stereo not given),2100
10,Cc1ccc(-c2ccc3c(c2)N(c2ccc(Cl)cc2)C[C@@H](C)c2nnc(C)n2-3)cn1,46

# System: not listed separately
# Experiment: Intrinsic clearance in mouse liver microsomes
# Conditions: not given
row,SMILES,microsomal CLint [µL/min/mg]
1,Cc1noc2c1-c1ccc(-c3cnn(C)c3)cc1N(c1ccc(C#N)cc1)CC2CC(N)=O (stereo not given),37
2,CCNC(=O)CC1CN(c2ccc(Cl)cc2)c2ccccc2-n2c(C)nnc21 (stereo not given),52
